Results: US20110306580A1 (DONG WHA PHARMACEUTICAL CO ., LTD., priority 2009, published 2011)

Tested on: ROS17/2.8 cells
Assay: Cell growth of ROS17/2.8 cells by the MTT method (formed formazan)
Type: cell-based, rat
Conditions: for activity at 0.02 µM: Rattus norvegicus, 2×10^−5M Test Compound solution diluted 1000 fold, read-out: Amount of formed formazan, Solution 8 (Test Compound alone); for activity at 0.02 µM / Amount of formed formazan, Solution 10 (a group of a drug combination): percentage to Solution 7 addition group, about 48 hours, average ± standard deviation of four wells; for Relative index of Solution 10 (a group of a drug combination) / Amount of formed formazan, Solution 10 (a group of a drug combination): Test Compound in combination with 1α,25-dihydroxyvitamin D3; for Relative index of Solution 10 (a group of a drug combination) / Relative index of Solution 8 (Test Compound alone): amount of formed formazan, Solution 7 = 1.00
Description: 100 μL of a 10% FCS-αMEM comprising either DMSO and ethanol (referred to as Solution 7, hereinafter), a Test Compound solution and ethanol (referred to as Solution 8, hereinafter), a 1α,25-dihydroxyvitamin D3 solution and DMSO (referred to as Solution 9, hereinafter) or a Test Compound solution and the 1α,25-dihydroxyvitamin D3 solution (referred to as Solution 10, hereinafter) was dispensed. The ROS17/2.8 cells were inoculated to a medium at a density of 5×10^3 cells/100 μL/well. After culture of the cells for about 48 hours, the effect of Test Compound and 1α,25-dihydroxyvitamin D3 on the cell growth of the ROS17/2.8 cells was evaluated using the MTT method. Namely, after culture of the cells for about 44 hours, an MTT solution (3-[4,5-dimethylthiazol-2-yl]-2,5-diphenyltetrazolium bromide 2 mg/mL) was added in an amount of 25 μL/well, and the cells were further cultured for four hours. After the medium was removed, DMSO was added in an amount of 100 μL/well so as to dissolve the formed formazan. The amount of the formed formazan was determined by measuring the absorbance (at 560 nm) of the solution by a microplate reader.
The 10% FCS-αMEM comprising Solution 7 was prepared by diluting DMSO by 1000 fold with the 10% FCS-αMEM, and diluting ethanol by 10000 fold with the 10% FCS-αMEM. The 10% FCS-αMEM comprising Solution 8 was prepared by diluting a 2×10^−5M Test Compound solution by 1000 fold with the 10% FCS-αMEM, and diluting ethanol by 10000 fold with the 10% FCS-αMEM. The 10% FCS-αMEM comprising Solution 9 was prepared by diluting 2×10^−3M 1α,25-dihydroxyvitamin D3 solution by 10000 fold with the 10% FCS-αMEM, and diluting DMSO by 1000 fold with the 10% FCS-αMEM. The 10% FCS-αMEM comprising Solution 10 was prepared by diluting a 2×10^−5M Test Compound solution by 1000 fold with the 10% FCS-αMEM, and diluting 2×10^−3M 1α,25-dihydroxyvitamin D3 solution by 10000 fold with the 10% FCS-αMEM.
The amount of the formed formazan in each solution addition group was obtained in terms of a percentage to the average value of the amounts of formed formazan in four wells in a Solution 7 addition group. All the determined values were shown in terms of the average value±standard deviation of the four wells of each solution addition group.

SMILES	activity at 0.02 µM [%]	Relative index of Solution 10 (a group of a drug combination)	Amount of formed formazan, Solution 10 (a group of a drug combination)	Relative index of Solution 8 (Test Compound alone)
CC(C)c1nc(-c2ccc(OCCCCCOc3ccc(/C(N)=N/O)cc3)cc2)c(CCN2CCSCC2)s1 [Compound 27, N-hydroxy-4-{5-[4-(2-isopropyl-5-(2-(thiomorpholin-4-yl)ethyl)-1,3-thiazol-4-yl)phenoxy]pentoxy}benzamidine]	98 ± 1.9	1.12	112 ± 0.9 ## %	0.98
CN(C)CCc1sc(C2CCCCC2)nc1-c1ccc(OCCCCCOc2ccc(/C(N)=N/O)cc2)cc1 [Compound 28, N-hydroxy-4-{5-[4-(2-cyclohexyl-5-(2-(dimethylamino)ethyl)-1,3-thiazol-4-yl)phenoxy]pentoxy}benzamidine]	99 ± 3.5	1.11	111 ± 2.0 # %	0.99
CN(C)c1nc(-c2ccc(OCCCCCOc3ccc(/C(N)=N/O)cc3)cc2)c(CCN2CCOCC2)s1 [Compound 29, N-hydroxy-4-{5-[4-(2-dimethylamino-5-(2-(morpholin-4-yl)ethyl)-1,3-thiazol-4-yl)phenoxy]pentoxy}benzamidine]	102 ± 5.6	1.14	114 ± 2.6 ## %	1.02
CC(C)c1nc(-c2ccc(OCCCCCOc3ccc(/C(N)=N/O)cc3)cc2)c(CCN(C(=O)c2ccncc2)C2CC2)s1 [Compound 30, N-hydroxy-4-{5-[4-(5-(2-(cyclopropyl(pyridin-4-carbonyl)amino)ethyl}-2-isopropyl-1,3-thiazol-4-yl)phenoxy]pentoxy}benzamidine]	99 ± 5.3	1.13	113 ± 1.2 ## %	0.99
CNC(=O)c1sc(N)nc1-c1ccc(OCCCCCOc2ccc(/C(N)=N/O)cc2)cc1 [Compound 31, N-hydroxy-4-{5-[4-(2-amino-5-(N-methylcarbamoyl)-1,3-thiazol-4-yl)phenoxy]pentoxy}benzamidine]	101 ± 2.9	1.10	110 ± 0.4 # %	1.01
Cc1nc(-c2ccc(OCCCCCOc3ccc(/C(N)=N/O)cc3)cc2)c(Cn2ccnc2)s1 [Compound 32, N-hydroxy-4-{5-[4-(5-(imidazol-1-ylmethyl)-2-methyl-1,3-thiazol-4-yl]phenoxy}pentoxy}benzamidine]	97 ± 3.3	1.10	110 ± 2.4 # %	0.97
CCN(C)c1nc(-c2ccc(OCCCCCOc3ccc(/C(N)=N/O)cc3)cc2)c(CN2CCOCC2)s1 [Compound 33, N-hydroxy-4-{5-[4-{2-ethylmethylamino-5-(morpholin-4-ylmethyl)-1,3-thiazol-4-yl)phenoxy]pentoxy}benzamidine]	106 ± 1.7	1.13	113 ± 1.9 ## %	1.06
Cc1nc(-c2ccc(OCCCCCOc3ccc(/C(N)=N/O)cc3)cc2)c(N(C)C)s1 [Compound 35, N-hydroxy-4-{5-[4-(5-dimethylamino-2-methyl-1,3-thiazol-4-yl)phenoxy]pentoxy}benzamidine]	101 ± 2.3	1.12	112 ± 3.0 ## %	1.01
